Structures can show the parent of a compound that is named as a salt.
Assays:
[1] = tested on: HMLE-ZEB1 cells (CDH1prom-luc reporter, Dox-induced ZEB1 driven EMT); test: Dual-Glo luciferase CDH1prom-luc reporter screen of LOPAC and bioactive lipid library; assay type: cell-based; conditions: ratio Firefly (CDH1prom-luc) / Renilla luciferase, normalized to DMSO = 1; primary screen
From the text: FIG. 1: Design of a cell-based reporter assay. Doxycycline (Dox)-induced ZEB1 driven EMT (HMLE-ZEB1 cells) was used to conduct high-throughput screen for identifying inhibitors of epithelial-mesenchymal transition.
A) Dual-Glo luciferase assay to test gene promoters that include CD44, CD166, CDH1 and SERPINE1 in Dox-induced HMLE-ZEB1 cells. Data are represented as ratio of mean Firefly luciferase (FF) and Renilla luciferase (Ren) readings; n=3. B) Dual-glo Luciferase assay of HMLE-ZEB1 screened with LOPAC library. Data are represented as ratio of mean Firefly luciferase (FF) and Renilla luciferase (Ren) readings, n=3. Hits are circled in red. C) Average Z-score of Dual-glo Luciferase assay in HMLE-ZEB1 cells screened with LOPAC library; n=4. D) Validation of screening hits by Dual-glo Luciferase assay in HMLE-ZEB1 screened with LOPAC library by primary and secondary screens. E) Hits from secondary screen validated at different concentrations 5, 1.66, 0.55, 0.18 and 0.06 μM. N=3 F) Validation of the screening hits by CDH1 gene expression. n=3. G) Top, Phase-contrast images of morphological changes of HMLE-ZEB1 cells in DMSO and Dox-treated cells in presence or absence of Kenpaullone (0.25 μM) (DMSO, Dox, Ken, and Dox+Ken). Scale represents 100 μm. Second, Immunofluorescence staining of epithelial marker E-Cadherin (ECAD) and mesenchymal marker Vimentin in DMSO, Dox, Ken and Dox+Ken treated cells. Scale represents 50 μm. Bottom, Fluorescence activated sorting analysis (FACS) of CD44 and CD24 staining in Dox induced HMLE-ZEB1 cells in presence or absence of Ken. Numbers within graph represent percentages of gated cells indicating CD44high CD24low (above) and CD44lowCD24high cells (below). H) TdTomato-labelled MCF7-SLUG+SOX9 cells that were injected orthotopically into the mammary fat pads and induced by Doxycycline (+Dox) to express SLUG and SOX9 to promote metastasis in shControl and shGSK3β cells. Top, Representative fluorescence images of whole-mount of lung and second, histology of lung sections. Scale bar represents 100 μm. Third, Tumors were stained for GSK3β and counterstained with hematoxylin. Scale bar represents 100 μm. Fourth, primary tumors were also stained for E-cadherin, Fibronectin and DAPI. Scale bar represents 50 μm. n=3-5 mice for each group. I) Total number of metastasis as counted from whole mount of lung in mice implanted with in shControl and shGSK3β cells. n=3-5 for each group. **P<0.01 and ***P<0.001 as determined by as determined by one-way ANOVA with Dunnet's multiple comparison test. All data are presented as mean+/−SEM. *P<0.05, **P<0.01, ***P<0.001 and ****P<0.0001, not significant (ns) as determined by unpaired two-tailed t-test unless otherwise stated.
FIG. 3: Identification of inhibitors of epithelial-mesenchymal transition from high-throughput screening of bioactive lipid library with the screening platform. A) Dual-glo Luciferase assay of HMLE-ZEB1 screened with bioactive lipid library. Data are represented as ratio of mean Firefly luciferase (FF) and Renilla luciferase (Ren) readings, n=3. Hits are circled in red. B) Average Z-score of Dual-glo Luciferase assay in HMLE-ZEB1 cells screened with bioactive lipid library; n=4. Compounds shown in red indicates top hits. C) Protein expression of EMT markers E-cadherin, Fibronectin Vimentin and Snail in DMSO and 4-OHT induced cells treated with and without Cay10603 (10 nM) in HMLE-TWIST. GAPDH was used as a loading control. D) (First)Morphological evidence and (second) Fluorescence activated sorting analysis (FACS) of CD44 and CD24 staining in DMSO, 4-OHT, CAY10603 and 4-OHT+CAY10603 treated cells. Numbers within graph represent percentages of gated cells indicating CD44highCD24low (above) and CD44lowCD24high cells (below). E) Representative bright-field images and quantification of DMSO,4-OHT, CAY,4-OHT+CAY treated cells as shown by of scratch wound migration assay before and after 6 h of scratch in presence or absence of 4-OHT-induced EMT. […]

HMLE-TWIST cells [2] = test: TWIST (4-OHT)-induced EMT: markers, morphology, CD44/CD24 FACS, acetylated tubulin; assay type: cell-based; conditions: 4-OHT induced HMLE-TWIST
From the text: (§1) FIG. 3: Identification of inhibitors of epithelial-mesenchymal transition from high-throughput screening of bioactive lipid library with the screening platform. A) Dual-glo Luciferase assay of HMLE-ZEB1 screened with bioactive lipid library. Data are represented as ratio of mean Firefly luciferase (FF) and Renilla luciferase (Ren) readings, n=3. Hits are circled in red. B) Average Z-score of Dual-glo Luciferase assay in HMLE-ZEB1 cells screened with bioactive lipid library; n=4. Compounds shown in red indicates top hits. C) Protein expression of EMT markers E-cadherin, Fibronectin Vimentin and Snail in DMSO and 4-OHT induced cells treated with and without Cay10603 (10 nM) in HMLE-TWIST. […] D) (First)Morphological evidence and (second) Fluorescence activated sorting analysis (FACS) of CD44 and CD24 staining in DMSO, 4-OHT, CAY10603 and 4-OHT+CAY10603 treated cells. […] E) Representative bright-field images and quantification of DMSO,4-OHT, CAY,4-OHT+CAY treated cells as shown by of scratch wound migration assay before and after 6 h of scratch in presence or absence of 4-OHT-induced EMT. […] F) (First) Representative images of whole-mount fluorescence lung image and (Second) histology of lung sections. […] All data are presented as mean+/−SEM. *P<0.05, **P<0.01, ***P<0.001 and ****P<0.0001, not significant (ns) as determined by unpaired two-tailed t-test unless otherwise stated. […]

HMLE-TWIST cells [3] = test: Scratch wound migration assay in 4-OHT-induced EMT; assay type: cell-based; conditions: 6 h after scratch
From the text: as §1

MCF7-SLUG+SOX9 cells = test: MCF7-SLUG+SOX9 orthotopic xenograft, EMT-dependent lung metastasis; assay type: in vivo, NSG mice
From the text: FIG. 3: Identification of inhibitors of epithelial-mesenchymal transition from high-throughput screening of bioactive lipid library with the screening platform. A) Dual-glo Luciferase assay of HMLE-ZEB1 screened with bioactive lipid library. Data are represented as ratio of mean Firefly luciferase (FF) and Renilla luciferase (Ren) readings, n=3. Hits are circled in red. B) Average Z-score of Dual-glo Luciferase assay in HMLE-ZEB1 cells screened with bioactive lipid library; n=4. Compounds shown in red indicates top hits. C) Protein expression of EMT markers E-cadherin, Fibronectin Vimentin and Snail in DMSO and 4-OHT induced cells treated with and without Cay10603 (10 nM) in HMLE-TWIST. GAPDH was used as a loading control. D) (First)Morphological evidence and (second) Fluorescence activated sorting analysis (FACS) of CD44 and CD24 staining in DMSO, 4-OHT, CAY10603 and 4-OHT+CAY10603 treated cells. Numbers within graph represent percentages of gated cells indicating CD44highCD24low (above) and CD44lowCD24high cells (below). E) Representative bright-field images and quantification of DMSO,4-OHT, CAY,4-OHT+CAY treated cells as shown by of scratch wound migration assay before and after 6 h of scratch in presence or absence of 4-OHT-induced EMT. Images were taken at 4× magnification. Scale bar represents 100 μm. F) (First) Representative images of whole-mount fluorescence lung image and (Second) histology of lung sections. Scale bar represents 100 μm. (Third)Tumors were stained for HDAC6 and counterstained with hematoxylin. Scale bar represents 100 μm. (Fourth) Primary tumors were also stained for E-cadherin, Fibronectin and DAPI. Scale bar represents 50 μm. n=4 mice for each group. G) Total number of metastasis as counted from whole mount of lung with −Dox, +Dox and ACY-1215+Dox treatment. n=3-4 for each group. **P<0.01 as determined by as determined by one-way ANOVA with Dunnet's multiple comparison test. All data are presented as mean+/−SEM. *P<0.05, **P<0.01, ***P<0.001 and ****P<0.0001, not significant (ns) as determined by unpaired two-tailed t-test unless otherwise stated.
FIG. 4. Disruption of microtubule depolymerization through HDAC6 inhibition and GSK3β inhibition restricts EMT. A) Top, Phase-contrast images of morphological changes in DMSO and 4-OHT induced cells treated with Ken, ACY-1215 and combination of both in HMLE-TWIST. Arrows represent cells growing as epithelial clusters. Scale represents 100 μm. Second, Immunofluorescence staining of acetylated α-tubulin in DMSO, Ken+ACY-1215, 4-OHT, ACY-1215+4-OHT, Ken+4-OHT and Ken+ACY-1215+4-OHT treated cells. Scale represents 50 μm. (Third) Fluorescence activated sorting analysis (FACS) of CD44 and CD24 staining in DMSO, Ken+ACY-1215, 4-OHT, ACY-1215+4-OHT, Ken+4-OHT and Ken+ACY-1215+4-OHT treated cells. […] C) Quantification of protein expression for DMSO, Ken+ACY, 4-OHT, ACY+4-OHT, Ken+4-OHT and Ken+ACY+4-OHT treated HMLE-TWIST cells (n=3). […] E) Quantification of percentage area closure in DMSO, Ken+ACY-1215, 4-OHT, ACY-1215+4-OHT, Ken+4-OHT and Ken+ACY-1215+4-OHT treated HMLE-TWIST cells. Graph represents mean+/−SEM of n=4. *P<0.05 and **P<0.01 as determined by unpaired t-test (two-tailed) by Welch's correction. F) Total number of metastasis as counted from whole mount of lung in mice implanted with shControl and shGSK3β cells treated with ACY-1215 in presence or absence of Dox treatment (n=3-4). […]

HMLE-ZEB1 cells = test: Validation of ZEB1-induced EMT inhibition (morphology); assay type: cell-based; conditions: Dox-induced HMLE-ZEB1, Kenpaullone 0.25 μM
From the text: A) Dual-Glo luciferase assay to test gene promoters that include CD44, CD166, CDH1 and SERPINE1 in Dox-induced HMLE-ZEB1 cells. Data are represented as ratio of mean Firefly luciferase (FF) and Renilla luciferase (Ren) readings; n=3. B) Dual-glo Luciferase assay of HMLE-ZEB1 screened with LOPAC library. Data are represented as ratio of mean Firefly luciferase (FF) and Renilla luciferase (Ren) readings, n=3. Hits are circled in red. C) Average Z-score of Dual-glo Luciferase assay in HMLE-ZEB1 cells screened with LOPAC library; n=4. D) Validation of screening hits by Dual-glo Luciferase assay in HMLE-ZEB1 screened with LOPAC library by primary and secondary screens. […] Bottom, Fluorescence activated sorting analysis (FACS) of CD44 and CD24 staining in Dox induced HMLE-ZEB1 cells in presence or absence of Ken. […] Top, Representative fluorescence images of whole-mount of lung and second, histology of lung sections. […] I) Total number of metastasis as counted from whole mount of lung in mice implanted with in shControl and shGSK3β cells. n=3-5 for each group. **P<0.01 and ***P<0.001 as determined by as determined by one-way ANOVA with Dunnet's multiple comparison test. All data are presented as mean+/−SEM. *P<0.05, **P<0.01, ***P<0.001 and ****P<0.0001, not significant (ns) as determined by unpaired two-tailed t-test unless otherwise stated. […]

SMILES	DMSO normalized FF/RL(DMSO = 1) [1]	other results
CC(C)(C)OC(=O)Nc1ccc(-c2cc(C(=O)NCCCCCCC(=O)NO)no2)cc1 [CAY 10603]	0.33	epithelial morphology and CD44 expression (FACS) (HMLE-TWIST cells [2]): retained epithelial morphology along with the block in gain of CD44 expression to some extent; inhibition of TWIST-driven EMT (retention of E-cadherin, no gain of mesenchymal markers) (HMLE-TWIST cells [2]; Cay10603 10 nM, protein expression): able to inhibit EMT; acquisition of migration ability, wound-healing assay (HMLE-TWIST cells [3]): blocked the acquisition of migration ability
Nc1ccc(-c2ccc3ccccc3n2)cc1 [BF-170 hydrochloride]	0.5174	
O=C(CCCCCCNC(=O)c1cnc(N(c2ccccc2)c2ccccc2)nc1)NO [ACY-1215, ricolinostat]		lung metastatic lesions (MCF7-SLUG+SOX9 cells; ACY-1215 50 mg/kg i.p. + Dox vs Dox-fed mice, 10 weeks after doxycycline): significantly reduced lung metastatic lesions; metastatic lesions in the lungs, shControl group (MCF7-SLUG+SOX9 cells; shControl cells, Dox induction, ACY-1215 treatment): reduced; metastatic lesions in the lungs, shGSK3β group (MCF7-SLUG+SOX9 cells; shGSK3β cells, ACY-1215 treatment, compared to Dox-fed shControl mice): reduced metastatic lesions most dramatically; tumor burden (MCF7-SLUG+SOX9 cells; shGSK3β group treated with ACY-1215 vs Dox-fed shControl): non-significant changes in tumor burden; EMT activation in primary tumors (higher HDAC6 and Fibronectin, low E-Cadherin) (MCF7-SLUG+SOX9 cells; tumors of ACY-1215+Dox mice vs Dox-fed mice): strikingly absent
O=c1c2ccccc2nc2n1CCc1c-2[nH]c2ccccc12 [Rutaecarpine]	0.5597	
CCCCCCCCCCCCCCCCCCOC[C@H](COP(=O)([O-])OCC[N+](C)(C)C)OC [2-O-methyl PAF C-18]	0.35	
COc1cccc(-c2cc(=O)c3ccccc3o2)c1N [PD 98,059]	0.4592	
Cc1cc(O)c2c(c1)C(=O)c1cc(O)cc(O)c1C2=O [Emodin]	0.6268	
O=c1cc(-c2ccc(O)cc2)oc2cc(O)cc(O)c12 [Apigenin]	0.5787	
COc1ccc(/C=C/C(=O)Nc2ccccc2C(=O)O)cc1OC [Tranilast]	0.4527	
CCc1ccc(/C=C2/SC(=S)NC2=O)cc1 [10058-F4]	0.5631	
Oc1cc(O)cc(/C=C/c2ccc(O)c(O)c2)c1 [Piceatannol]	0.6253	
Cc1ccc(C(=O)Cn2c3c(sc2=N)CCCC3)cc1 [Pifithrin-α]	0.348	
O=C1Cc2c([nH]c3ccc(Br)cc23)-c2ccccc2N1 [Kenpaullone]	0.8715	inhibition of ZEB1-induced EMT (retention of epithelial morphology) (HMLE-ZEB1 cells): able to inhibit ZEB1-induced EMT

Reference: patent US20260108514A1, “METHOD OF INHIBITING EPITHELIAL-MESENCHYMAL TRANSITION AND CANCER METASTASIS” (Agency for Science, Technology and Research, priority 2022, published 2026)
